Article PMC8396542, “Iterated Virtual Screening-Assisted Antiviral and Enzyme Inhibition Assays Reveal the Discovery of Novel Promising Anti-SARS-CoV-2 with Dual Activity” (International Journal of Molecular Sciences, 2021)

Tests used:
human TMPRSS2 = molecular target: T1, human TMPRSS2 (Homo sapiens, UniProt O15393); assay: fluorogenic protease assay; format: biochemical
T1 construct: enzyme from BPS Bioscience TMPRSS2 fluorogenic assay kit

[1] = molecular target: T2, SARS-CoV-2 M^pro (3CL Protease, 3CL^pro) (Severe acute respiratory syndrome coronavirus 2, UniProt P0DTD1); assay: biochemical
T2 construct: gene rep; untagged enzyme from BPS Bioscience kit; mature main protease nsp5 cut from replicase polyprotein 1ab (pp1a/pp1ab)

human furin = molecular target: T3, human furin (Homo sapiens, UniProt P09958); assay: fluorogenic protease assay; format: biochemical
T3 construct: recombinant furin from BPS Bioscience furin protease assay kit
T3 sequence (P09958 108-715): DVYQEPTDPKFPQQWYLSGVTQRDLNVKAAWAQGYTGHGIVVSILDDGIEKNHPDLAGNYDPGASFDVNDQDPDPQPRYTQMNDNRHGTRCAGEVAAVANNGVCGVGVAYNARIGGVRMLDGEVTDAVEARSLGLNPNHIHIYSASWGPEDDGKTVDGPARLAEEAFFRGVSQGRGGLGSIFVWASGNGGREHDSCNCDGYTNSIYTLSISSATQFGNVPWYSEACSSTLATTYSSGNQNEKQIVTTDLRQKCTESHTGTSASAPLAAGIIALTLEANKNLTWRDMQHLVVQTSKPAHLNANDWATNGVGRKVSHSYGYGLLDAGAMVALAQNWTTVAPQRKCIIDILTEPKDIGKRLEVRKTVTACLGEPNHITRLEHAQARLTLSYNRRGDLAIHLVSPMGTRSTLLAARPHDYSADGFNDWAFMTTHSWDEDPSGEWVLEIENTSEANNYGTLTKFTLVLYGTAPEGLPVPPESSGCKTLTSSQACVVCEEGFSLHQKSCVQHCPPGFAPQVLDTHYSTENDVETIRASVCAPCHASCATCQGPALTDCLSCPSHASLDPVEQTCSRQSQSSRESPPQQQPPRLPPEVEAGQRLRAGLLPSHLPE

T1 sequence (O15393 109-492 limits assumed): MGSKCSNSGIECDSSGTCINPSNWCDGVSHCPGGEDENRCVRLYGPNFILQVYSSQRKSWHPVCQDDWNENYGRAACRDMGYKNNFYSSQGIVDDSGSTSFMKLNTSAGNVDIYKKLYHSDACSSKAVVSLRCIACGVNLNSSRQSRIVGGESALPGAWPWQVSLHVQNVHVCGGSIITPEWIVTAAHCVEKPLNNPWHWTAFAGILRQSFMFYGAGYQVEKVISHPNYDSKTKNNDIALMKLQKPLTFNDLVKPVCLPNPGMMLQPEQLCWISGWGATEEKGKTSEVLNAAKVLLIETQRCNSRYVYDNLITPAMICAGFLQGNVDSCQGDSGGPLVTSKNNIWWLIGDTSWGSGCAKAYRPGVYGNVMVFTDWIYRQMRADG

SMILES: N=C(N/N=C/c1ccncc1)c1nonc1NCNc1nonc1C(=N)N/N=C/c1ccncc1 [M3]
- IC50 (human TMPRSS2): 50 ± 2 nM
- IC50 [1]: 13 ± 3 nM
- IC50 (human furin): 90 ± 2 nM
